Experimental data reported in patent US20190142046A1, “FUNCTIONALLY REINFORCED DESALTED NUTRITIONAL COMPOSITIONS FROM HALOPHYTES AND PREPARATION METHOD THEREOF” (PHYTO CORPORATION, priority 2016, published 2019).
Where a name gives a salt, the structure may show the parent alone.

Legend:
Assay type in all cases: cell-based
3T3-L1 cells [1] = assay: Oil Red O staining of lipid droplets during adipocyte differentiation
Procedure: The major marker component of the desalted Salicornia powder, trans-ferulic acid (TFA), was evaluated for its inhibitory effect on adipocyte differentiation using 3T3-L1 cells as an in-vitro model of adipocyte differentiation. 3T3-L1 preadipocytes were checked for contamination every eight hours to improve confidence in the experiment. Primary preadipocytes were propagated, and were then induced to differentiate with a culture medium containing 3-isobutyl-1-methylxanthine (IBMX), dexamethasone and insulin. During the differentiation induction, the medium was changed twice every three days. After being induced to differentiate, 3T3-L1 cells were subjected to Oil Red O staining to detect the presence of intracellular lipid droplets. First, the medium was discarded from each well, and cells were fixed with 4% paraformaldehyde. Subsequently, cells were washed with 100% 1,2-propanediol dehydration solution for 5 min and then stained with Oil Red O stain solution. After Oil Red O staining, 85% 1,2-propanediol stain differential solution was added to each well for cell washing. Finally, distilled water was added to each well to prevent stained cells from drying, and cells were observed under a microscope to determine lipid accumulation.

3T3-L1 cells [2] = assay: Intracellular triglyceride formation during adipocyte differentiation
Procedure: The major marker component of the desalted Salicornia powder, trans-ferulic acid (TFA), was evaluated for its inhibitory effect on adipocyte differentiation using 3T3-L1 cells as an in-vitro model of adipocyte differentiation. 3T3-L1 preadipocytes were checked for contamination every eight hours to improve confidence in the experiment. Primary preadipocytes were propagated, and were then induced to differentiate with a culture medium containing 3-isobutyl-1-methylxanthine (IBMX), dexamethasone and insulin. During the differentiation induction, the medium was changed twice every three days. In addition, as a marker for adipocyte differentiation, intracellular triglyceride formation was investigated.

FAS = assay: Real-Time RT-PCR, FAS gene expression in 3T3-L1; conditions: 1, 2, 5 and 10 μM; largest decrease at 10 μM
Procedure: (§1) Real-Time RT-PCR was performed to investigate the effect of trans-ferulic acid (TFA) on transcription factors involved in lipid metabolism at mRNA expression levels. Total RNA was isolated from a control group and each test group treated with various concentrations of TFA (easy-Blue, iNtRon, INC, Daejeon, Korea) and diluted at the same concentration, and cDNA synthesis was carried out using the diluted RNA samples (cDNA reverse transcription kits, Applied Biosystems, CA, USA).
(§2) In brief, after 3T3-L1 preadipocytes were treated with TFA at various concentrations, namely 1, 2, 5 and 10 μM), Real-time qRT-PCR was performed using the primers of Table 9 (CFX96 real-time PCR detection system, Bio-Rad Laboratories, Hercules, Calif., USA). The PCR conditions included denaturation at […] for 3 min, 45 cycles of 95° C. for 5 sec and 60° C. for 20 sec, and heating up to 95° C. (by increasing the temperature at a rate of 0.2° C./15 sec) to terminate the reaction. […] Therefore, the Desalted Salicornia Powder (DSP) containing TFA as an effective component may effectively reduce body fat by inhibiting adipocyte differentiation and lipid droplet formation and may eventually lead to a decrease in body weight, and thus has the potential to be applied as a functional food and feedstuff for preventing and/or treating obesity.

SREBP-1 = assay: Real-Time RT-PCR, SREBP-1 gene expression in 3T3-L1; conditions: 1, 2, 5 and 10 μM; largest decrease at 10 μM
Procedure: as §1, §2

C/EBPα = assay: Real-Time RT-PCR, C/EBPα gene expression in 3T3-L1; conditions: 5 μM and 10 μM
Procedure: as §1, §2

PPARγ = assay: Real-Time RT-PCR, PPARγ gene expression in 3T3-L1; conditions: 10 μM
Procedure: as §1, §2

## COc1cc(/C=C/C(=O)O)ccc1O [TFA, trans-ferulic acid]
3T3-L1 cells [1]; 5 μM and 10 μM
  inhibition of lipid droplet formation compared to differentiation-induced control (MDI): remarkably significant inhibition
3T3-L1 cells [1]; within the used concentrations
  adipocyte differentiation and lipid droplet formation (Oil Red O): inhibit adipocyte differentiation and lipid droplet formation in a dosage-dependent manner
3T3-L1 cells [2]; 5 μM and 10 μM
  triglyceride formation compared to differentiation-induced control (MDI): remarkably significantly inhibited
3T3-L1 cells [2]; 1, 2, 5 and 10 μM
  intracellular triglyceride formation: reduced intracellular triglyceride formation in a dosage-dependent manner
FAS
  FAS gene expression compared to differentiation-induced control (MDI): reduced in a dosage-dependent manner
SREBP-1
  SREBP-1 gene expression compared to differentiation-induced control (MDI): reduced in a dosage-dependent manner
C/EBPα
  C/EBPα gene expression compared to differentiation-induced control (MDI): significantly reduced in a dosage-dependent manner
PPARγ
  PPARγ gene expression: significantly reduced
